Source: patent US20260034103A1, “COMPOSITIONS AND METHODS FOR IMPROVING MEMORY AND COGNITION” (priority 2022, published 2026)

Key:
[1] = system: Sprague Dawley rat hippocampal slices; experiment: Ex vivo electrophysiology in rat hippocampal slices: mEPSP frequency; format: cell-based
Description: The effect of compound 1 to enhance mEPSPs may be dependent on the influx of extracellular calcium.

Wistar rats = experiment: Novel object recognition test, subchronic PCP-induced cognitive impairment; format: in vivo, rat
Description: The total exploration time of two identical objects in the acquisition trial was measured manually and indicated as the mean±SEM (n=10). No statistical difference was found in the total exploration time among the different groups by one-way ANOVA (P=0.340).
NDI was calculated using the following equation: novel object interaction time/total interaction time×100(%). Data are represented as the mean±SEM (n=10). Significant difference from control group was indicated by ***P<0.001 (Student's t-test). Significant differences from PCP-treated group were indicated by ##P<0.01, #P<0.05 (Dunnett test). Significant difference from PCP-treated group were indicated by ††P<0.01 (Student's t-test).
Exploration time of each object in retention trial was measured manually and presented as the mean±SEM (n=10). Significant differences from familiar object interaction were indicated by ***P<0.001, **P<0.01 (paired t-test).
A novel object recognition test was conducted to investigate the effect of SP-624 on subchronic PCP-induced cognitive impairment in Wistar rats. Clozapine was used as a positive control.

[2] = system: adult subjects with major depressive disorder (MDD); experiment: Phase 2 clinical trial in MDD: MADRS Item #6 Concentration Difficulties; format: in vivo, human; parameters: key to MADRS Item #6 Concentration Difficulty score, Median / MADRS Item #6 Concentration Difficulty score, Min / MADRS Item #6 Concentration Difficulty score, Max: 0 = no concentration difficulty, 6 = unable to read/converse; key to MADRS Item #6 Change from Baseline, Median / MADRS Item #6 Change from Baseline, Max: change from baseline on 0–6 MADRS item scale; settings: for MADRS Item #6 Change from Baseline, Max / MADRS Item #6 Change from Baseline, Mean (SD) / MADRS Item #6 Change from Baseline, Median / MADRS Item #6 Change from Baseline, Min / MADRS Item #6 Concentration Difficulty score, Max / MADRS Item #6 Concentration Difficulty score, Mean (SD) / MADRS Item #6 Concentration Difficulty score, Median / MADRS Item #6 Concentration Difficulty score, Min / MADRS Item #6 Change from Baseline, LSM Difference (95% CI) SP-624 vs Placebo: mITT, Females; for MADRS Item #6 Change from Baseline, LSM Difference (95% CI) SP-624 vs Placebo: MMRM
Description: A Phase 2, multicenter, double-blind, randomized, placebo-controlled study of the safety and efficacy of SP-624 in the treatment of adult subjects with major depressive disorder (MDD) as defined by the Diagnostic and Statistical Manual of Mental Disorders, Fifth Edition (DSM-5) was carried out. Following the successful completion of a Screening Phase, subjects were randomized to one of two treatment groups in a 1:1 ratio and received Compound 1 (SP-624) or placebo over a treatment period of four weeks (Treatment Group #1: SP-624 20 mg/day; Treatment Group #2: Placebo).
Prior to initiating the 4-week treatment period, subjects completed a Screening/Baseline period of up to 28 days, during which time all screening assessments were performed, and any current depression medications discontinued. All screening assessments were completed before discontinuing any current depression medications. Subjects returned for a Baseline Visit to complete efficacy and safety assessments. During the treatment period, subjects returned to the investigative site to complete efficacy and safety assessments at the end of Weeks 1, 2, 3, and 4. After the final dose of study drug, subjects completed a follow-up period of two weeks and returned at the end of Weeks 5 and 6. Subjects may be treated with anti-depressant medications according to physician recommendations after completion of the Week 5 Visit.
Each dose of Compound 1 was supplied as two capsules, each containing 10 mg of active pharmaceutical ingredient (API). Matching placebo capsules identical in shape and color to the active capsules were used.
The third cognitive function measurement is MADRS Item #6 Concentration Difficulties (representing difficulties in collecting one's thoughts mounting to incapacitating lack of concentration, rated according to intensity, frequency, and degree of incapacity produced). The answer scale is: 0—No difficulties in concentration; 1—blank; 2—Occasional difficulties in collecting one's thoughts; 3—blank; 4—Difficulties in concentrating and sustaining thought which reduces ability to read or hold a conversation; 5—blank; 6—Unable to read or converse without great difficulty.

[3] = Week 5 (1-week after the last dose), 20 mg/day for four weeks

With `COC1=CC(=O)C[C@@H](C)[C@]12Oc1c(Cl)c(-c3nnc(C)o3)cc(OC)c1C2=O` [Compound 1, (2S,6′R)-7-Chloro-2′,4-dimethoxy-6′-methyl-6-(5-methyl-1,3,4-oxadiazol-2-yl)-3H-spiro[1-benzofuran-2,1′-cyclohex[2]ene]-3,4′-dione] the “frequency of miniature excitatory post-synaptic potentials (mEPSPs) in the hippocampus” value [1] was “increase the frequency”, the “sub-chronic PCP-induced cognitive deficits in the NDI” value (Wistar rats; 0.01 mg/kg) was “not” and the “sub-chronic PCP-induced cognitive deficits in the NDI” value (Wistar rats; 0.1 and 1 mg/kg) was “significantly attenuated”. For the same molecule, the “MADRS Item #6 Change from Baseline, Max” value ([2]; Week 1, 20 mg/day) was 1, the “MADRS Item #6 Change from Baseline, Mean (SD)” value (shortened to “MADRS Item #6 Change … (SD)”) ([2]; Week 1, 20 mg/day) was −0.7 (1.27) and the “MADRS Item #6 Change from Baseline, Median” value (shortened to “MADRS Item #6 Change … Median”) ([2]; Week 1, 20 mg/day) was 0. The “MADRS Item #6 Change from Baseline, Min” value ([2]; Week 1, 20 mg/day) was −5, the “MADRS Item #6 Concentration Difficulty score, Max” value ([2]; Week 1, 20 mg/day) was 6 and the “MADRS Item #6 Concentration Difficulty score, Mean (SD)” value ([2]; Week 1, 20 mg/day) was 3.0 (1.48). For the same molecule, the “MADRS Item #6 Concentration Difficulty score, Median” value ([2]; Week 1, 20 mg/day) was 4, the “MADRS Item #6 Concentration Difficulty score, Min” value ([2]; Week 1, 20 mg/day) was 0 and the “MADRS Item #6 Change from Baseline, LSM Difference (95% CI) SP-624 vs Placebo” value ([2]; Week 1, 20 mg/day, P-value 0.339) was −0.2 (−0.5, 0.2). For the same molecule, the “MADRS Item #6 Change from Baseline, Max” value ([2]; Week 2, 20 mg/day) was 3, the “MADRS Item #6 Change … (SD)” value ([2]; Week 2, 20 mg/day) was −0.7 (1.27) and the “MADRS Item #6 Change … Median” value ([2]; Week 2, 20 mg/day) was 0. For the same molecule, the “MADRS Item #6 Change from Baseline, Min” value ([2]; Week 2, 20 mg/day) was −4, the “MADRS Item #6 Concentration Difficulty score, Max” value ([2]; Week 2, 20 mg/day) was 5 and the “MADRS Item #6 Concentration Difficulty score, Mean (SD)” value ([2]; Week 2, 20 mg/day) was 3.0 (1.37). The “MADRS Item #6 Concentration Difficulty score, Median” value ([2]; Week 2, 20 mg/day) was 3, the “MADRS Item #6 Concentration Difficulty score, Min” value ([2]; Week 2, 20 mg/day) was 0 and the “MADRS Item #6 Change from Baseline, LSM Difference (95% CI) SP-624 vs Placebo” value ([2]; Week 2, 20 mg/day, P-value 0.753) was 0.1 (−0.3, 0.4). For the same molecule, the “MADRS Item #6 Change from Baseline, Max” value ([2]; Week 3, 20 mg/day) was 0, the “MADRS Item #6 Change … (SD)” value ([2]; Week 3, 20 mg/day) was −1.2 (1.40) and the “MADRS Item #6 Change … Median” value ([2]; Week 3, 20 mg/day) was −1. The “MADRS Item #6 Change from Baseline, Min” value ([2]; Week 3, 20 mg/day) was −5, the “MADRS Item #6 Concentration Difficulty score, Max” value ([2]; Week 3, 20 mg/day) was 4 and the “MADRS Item #6 Concentration Difficulty score, Mean (SD)” value ([2]; Week 3, 20 mg/day) was 2.6 (1.58). For the same molecule, the “MADRS Item #6 Concentration Difficulty score, Median” value ([2]; Week 3, 20 mg/day) was 3, the “MADRS Item #6 Concentration Difficulty score, Min” value ([2]; Week 3, 20 mg/day) was 0 and the “MADRS Item #6 Change from Baseline, LSM Difference (95% CI) SP-624 vs Placebo” value ([2]; Week 3, 20 mg/day, P-value 0.214) was −0.3 (−0.7, 0.2). The “MADRS Item #6 Change from Baseline, Max” value ([2]; Week 4, 20 mg/day) was 1, the “MADRS Item #6 Change … (SD)” value ([2]; Week 4, 20 mg/day) was −1.2 (1.51) and the “MADRS Item #6 Change … Median” value ([2]; Week 4, 20 mg/day) was −1. For the same molecule, the “MADRS Item #6 Change from Baseline, Min” value ([2]; Week 4, 20 mg/day) was −4, the “MADRS Item #6 Concentration Difficulty score, Max” value ([2]; Week 4, 20 mg/day) was 5 and the “MADRS Item #6 Concentration Difficulty score, Mean (SD)” value ([2]; Week 4, 20 mg/day) was 2.5 (1.67). For the same molecule, the “MADRS Item #6 Concentration Difficulty score, Median” value ([2]; Week 4, 20 mg/day) was 3, the “MADRS Item #6 Concentration Difficulty score, Min” value ([2]; Week 4, 20 mg/day) was 0 and the “MADRS Item #6 Change from Baseline, LSM Difference (95% CI) SP-624 vs Placebo” value ([2]; Week 4, 20 mg/day, P-value 0.144) was −0.3 (−0.8, 0.1). For the same molecule, the “MADRS Item #6 Change from Baseline, Max” value [2, 3] was 1, the “MADRS Item #6 Change … (SD)” value [2, 3] was −1.3 (1.51) and the “MADRS Item #6 Change … Median” value [2, 3] was −1. For the same molecule, the “MADRS Item #6 Change from Baseline, Min” value [2, 3] was −5, the “MADRS Item #6 Concentration Difficulty score, Max” value [2, 3] was 5 and the “MADRS Item #6 Concentration Difficulty score, Mean (SD)” value [2, 3] was 2.4 (1.63). For the same molecule, the “MADRS Item #6 Concentration Difficulty score, Median” value [2, 3] was 3, the “MADRS Item #6 Concentration Difficulty score, Min” value [2, 3] was 0 and the “MADRS Item #6 Change from Baseline, LSM Difference (95% CI) SP-624 vs Placebo” value ([2]; Week 5 (1-week after the last dose), 20 mg/day for four weeks, P-value 0.007) was −0.6 (−1.1, −0.2). The “MADRS Item #6 Concentration Difficulties, improvement in score vs placebo” value ([2]; all measurement times through week 5, 20 mg/day) was “greater improvement in score”.
